# In BindingDB's records for doi:10.1021/jm200304y (Kyoto University, 2011):
# Experiment: Inhibition of SREBP2 activation expressed in CHO-K1 cells co-transfected with pSRE-Luc plasmid assessed as inhibition of luciferase expression after 20 hrs by luciferase reporter gene assay
row,SMILES,IC50 [µM]
1,CCCc1cc(-c2nc(-c3ccc(OC)cc3)cs2)ccn1,13
2,Cc1ccc(-c2csc(-c3ccccc3)n2)cc1,18.6
3,Cc1ccc(-c2csc(-c3ccncc3)n2)cc1,> 30
4,CCc1cc(-c2nc(-c3ccc(C)cc3)cs2)ccn1,6.8
5,"C[C@H](CCCC(C)(C)O)[C@H]1CC[C@H]2[C@@H]3CC=C4C[C@@H](O)CC[C@]4(C)[C@H]3CC[C@]12C [(1S,2R,5S,10S,11S,14R,15R)-14-[(2R)-6-hydroxy-6-methylheptan-2-yl]-2,15-dimethyltetracyclo[8.7.0.0^{2,7}.0^{11,15}]heptadec-7-en-5-ol]",0.3
6,CCCc1cc(-c2nc(-c3ccc(O)cc3)cs2)ccn1,9.6
7,CCCc1cc(-c2nc(-c3ccc(NCC4CC4)cc3)cs2)ccn1,4.9
8,CCCc1cc(-c2ccc(-c3ccc(C)cc3)cc2)ccn1,> 30
9,CCCc1cc(-c2nc(-c3cccc(OC)c3)cs2)ccn1,10.2
10,CCCc1cc(-c2nc(-c3cccc(O)c3)cs2)ccn1,9.5
11,CCCc1cc(-c2nc(-c3cccs3)cs2)ccn1,14.7
12,CCCc1cc(-c2nc(-c3ccc(C)cc3)cs2)ccn1 [SMR000221636],5.6
13,CCCc1cc(-c2nc(-c3ccc(NS(C)(=O)=O)cc3)cs2)ccn1,0.7
14,CCCc1cc(-c2nc(-c3ccc(Br)cc3)cs2)ccn1,9.8
15,CCCc1cc(-c2nc(-c3ccc(N)cc3)cs2)ccn1,8.6
16,CCCc1cc(-c2nc(-c3ccccc3)cs2)ccn1,23
17,CCCc1cc(-c2nc(-c3ccc(NS(=O)(=O)c4cccs4)cc3)cs2)ccn1,0.9
18,CCCc1cc(-c2nc(-c3ccccc3OC)cs2)ccn1,3.2
19,CCCc1cc(-c2nc(-c3ccc(NC(C)C)cc3)cs2)ccn1,2.8
20,CCCc1cc(-c2nc(-c3ccc(OC(=O)c4ccccc4)cc3)cs2)ccn1,7.7
21,CCCc1cc(-c2nc(-c3ccc(F)cc3)cs2)ccn1,12.4
22,CCCc1cc(-c2nc(-c3ccc(NCc4ccccc4)cc3)cs2)ccn1,3
23,CCCc1cc(-c2nc(-c3ccc(NC(=O)OC(C)(C)C)cc3)cs2)ccn1,1.9
24,CCCc1cc(-c2nc(-c3ccc(NC(C)=O)cc3)cs2)ccn1,7.1
25,CCCc1cc(-c2nc(-c3ccc(NS(=O)(=O)c4ccc(C)cc4)cc3)cs2)ccn1,2.3
26,CCCc1cc(-c2nc(-c3ccccc3O)cs2)ccn1,14.4
27,CCCc1cc(-c2nc(-c3ccc(Cl)cc3)cs2)ccn1 [SMR000177579],10.7
